The values below come from publication PMC10850190, “Bifidobacterial GH146 β-L-arabinofuranosidase for the removal of β1,3-L-arabinofuranosides on plant glycans” (Applied Microbiology and Biotechnology, 2024).

For this test, the target named is T1, Bll1HypBA1 (Bifidobacterium longum, UniProt E8MGH8).
T1 construct: gene hypBA1; GH127 enzyme prepared as in earlier reports; homodimer
T1 sequence (E8MGH8 1-658): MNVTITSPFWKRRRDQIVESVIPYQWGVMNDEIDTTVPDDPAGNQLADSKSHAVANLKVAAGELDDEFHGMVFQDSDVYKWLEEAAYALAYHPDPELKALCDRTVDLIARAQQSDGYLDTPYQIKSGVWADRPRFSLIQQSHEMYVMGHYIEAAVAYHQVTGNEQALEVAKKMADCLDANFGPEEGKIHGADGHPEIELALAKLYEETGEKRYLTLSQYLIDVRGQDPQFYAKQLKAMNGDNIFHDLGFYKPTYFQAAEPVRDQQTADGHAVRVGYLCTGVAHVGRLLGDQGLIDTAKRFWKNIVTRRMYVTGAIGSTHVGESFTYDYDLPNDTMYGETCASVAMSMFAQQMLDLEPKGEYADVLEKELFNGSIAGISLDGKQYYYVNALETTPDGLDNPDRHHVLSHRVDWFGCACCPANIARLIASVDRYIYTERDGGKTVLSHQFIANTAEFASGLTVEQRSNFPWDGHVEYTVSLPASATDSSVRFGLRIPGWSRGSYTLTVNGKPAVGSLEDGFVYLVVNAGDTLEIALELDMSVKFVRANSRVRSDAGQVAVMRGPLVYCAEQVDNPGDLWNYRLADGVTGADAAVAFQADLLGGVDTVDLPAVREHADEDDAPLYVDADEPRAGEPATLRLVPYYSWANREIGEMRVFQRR
Description: TLC, released L-arabinose. Type of test: biochemical. The following applies: 50 mM sodium acetate pH 5.5; 37 °C; 16 h.

Take `CO[C@@H]1O[C@@H](CO[C@H]2O[C@@H](CO)[C@H](O)[C@H]2O)[C@H](O)[C@H]1O` [β5, Araf-β1,5-Araf-α-OMe]: the “TLC, released L-arabinose” value was “Conversely, Bll1HypBA1 completely hydrolyzed these substrates”.

For `CO[C@@H]1O[C@@H](CO)[C@H](O)[C@H]1O[C@H]1O[C@@H](CO)[C@H](O)[C@H]1O` [β2, Araf-β1,2-Araf-α-OMe], the “TLC, released L-arabinose” value was “Conversely, Bll1HypBA1 completely hydrolyzed these substrates”.
